# Laboratory results as given in ChEMBL document CHEMBL1201862, “PubChem BioAssay data set” (2004).
# Activity calls are given as the source filed them.
# How the values were obtained:
# [1] = Trypanosoma cruzi growth suppression in host cells – NIH3T3 host cells, beta-gal luminescence, confirmation (AID 2044); type: functional, cell-based;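 further: intracellular parasites grown in NIH/3T3 mouse fibroblasts as host cells; luminescent beta-galactosidase reporter signal from transgenic T. cruzi replicating inside host cells; inhibitors lower the luminescence signal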
# [2] = NIH3T3 cell viability loss – ATP luminescence, mouse fibroblasts, counter-screen, dose response (AID 2010); type: functional, cell-based;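 further: cells exposed to compound for about 90 hours before reading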
# CAAX prenyl protease 2 = target: T1, CAAX prenyl protease 2 (Saccharomyces cerevisiae S288c, UniProt Q03530); type: biochemical
# T1 sequence (Q03530 whole entry): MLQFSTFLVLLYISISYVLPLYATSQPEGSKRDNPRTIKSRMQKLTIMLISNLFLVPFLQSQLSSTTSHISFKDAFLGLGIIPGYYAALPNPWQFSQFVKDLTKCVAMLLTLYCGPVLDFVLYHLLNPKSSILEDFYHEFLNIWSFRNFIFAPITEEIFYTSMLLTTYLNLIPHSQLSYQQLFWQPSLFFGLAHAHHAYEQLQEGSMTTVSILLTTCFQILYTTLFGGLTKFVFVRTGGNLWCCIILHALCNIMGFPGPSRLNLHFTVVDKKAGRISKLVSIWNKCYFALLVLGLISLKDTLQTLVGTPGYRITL
# [3] = THP-1 cell cytotoxicity, dose response, cytotoxicity control for non-replicating M. tuberculosis project (AID 489025); type: functional
# [4] = HepG2 cell cytotoxicity, dose response, cytotoxicity control for non-replicating M. tuberculosis project (AID 489018); type: functional; settings: Mycobacterium tuberculosis
# [5] = Vero E6 cell cytotoxicity, dose response, cytotoxicity control for non-replicating M. tuberculosis project, secondary assay (AID 492998); type: functional, VeroE6; settings: Vero C1008
# cells = type: functional
# [6] = Luminescence Cell-Based Dose Retest to Confirm Inhibitors of Cancer Stem Cells. [Related pubchem assays (depositor defined):AID2717, AID2721]; type: functional; settings: Homo sapiens
# [7] = target: T2, Carboxy-terminal domain RNA polymerase II polypeptide A small phosphatase 1 (Homo sapiens, UniProt Q9GZU7); experiment: CTDSP1 inhibitors, concentration-response, biochemical, absorbance readout, ultra-high-throughput screen actives (AID 540297); type: functional
# T2 sequence (Q9GZU7 whole entry): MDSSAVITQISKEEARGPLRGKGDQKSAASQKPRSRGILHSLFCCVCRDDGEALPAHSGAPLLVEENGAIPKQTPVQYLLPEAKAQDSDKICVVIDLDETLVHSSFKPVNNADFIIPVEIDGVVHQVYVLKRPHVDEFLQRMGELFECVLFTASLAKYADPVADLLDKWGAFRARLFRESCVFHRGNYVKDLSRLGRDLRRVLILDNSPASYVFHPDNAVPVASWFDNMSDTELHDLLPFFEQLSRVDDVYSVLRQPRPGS
# Estrogen receptor = target: T3, Estrogen receptor (Homo sapiens, UniProt P03372);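 further: potency for inhibiting coactivator peptide recruitment to the receptor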
# T3 sequence (P03372 whole entry): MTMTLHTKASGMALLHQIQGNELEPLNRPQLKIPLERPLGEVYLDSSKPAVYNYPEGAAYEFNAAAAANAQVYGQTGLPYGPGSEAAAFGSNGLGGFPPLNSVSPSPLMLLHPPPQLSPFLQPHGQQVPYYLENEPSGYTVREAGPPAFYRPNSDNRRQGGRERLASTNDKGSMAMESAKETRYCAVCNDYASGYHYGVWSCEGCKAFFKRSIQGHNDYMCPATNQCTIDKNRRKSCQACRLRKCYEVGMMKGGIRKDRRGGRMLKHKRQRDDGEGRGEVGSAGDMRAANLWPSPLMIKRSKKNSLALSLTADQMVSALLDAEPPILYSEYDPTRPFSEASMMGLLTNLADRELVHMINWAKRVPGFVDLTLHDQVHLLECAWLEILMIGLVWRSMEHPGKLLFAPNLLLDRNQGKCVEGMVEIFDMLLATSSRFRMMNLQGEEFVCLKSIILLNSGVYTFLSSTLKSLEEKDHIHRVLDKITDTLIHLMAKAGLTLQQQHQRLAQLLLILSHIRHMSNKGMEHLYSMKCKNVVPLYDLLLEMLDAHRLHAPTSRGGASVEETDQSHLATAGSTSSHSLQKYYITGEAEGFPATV
# Genome polyprotein = Genome polyprotein (dengue virus type 2, UniProt P29990); experiment: flavivirus cap methylation enzyme inhibition – biochemical, confirmation dose response, primary screen (AID 588689); type: functional
# Chain of Genome polyprotein (P29990 2492-3391 limits assumed): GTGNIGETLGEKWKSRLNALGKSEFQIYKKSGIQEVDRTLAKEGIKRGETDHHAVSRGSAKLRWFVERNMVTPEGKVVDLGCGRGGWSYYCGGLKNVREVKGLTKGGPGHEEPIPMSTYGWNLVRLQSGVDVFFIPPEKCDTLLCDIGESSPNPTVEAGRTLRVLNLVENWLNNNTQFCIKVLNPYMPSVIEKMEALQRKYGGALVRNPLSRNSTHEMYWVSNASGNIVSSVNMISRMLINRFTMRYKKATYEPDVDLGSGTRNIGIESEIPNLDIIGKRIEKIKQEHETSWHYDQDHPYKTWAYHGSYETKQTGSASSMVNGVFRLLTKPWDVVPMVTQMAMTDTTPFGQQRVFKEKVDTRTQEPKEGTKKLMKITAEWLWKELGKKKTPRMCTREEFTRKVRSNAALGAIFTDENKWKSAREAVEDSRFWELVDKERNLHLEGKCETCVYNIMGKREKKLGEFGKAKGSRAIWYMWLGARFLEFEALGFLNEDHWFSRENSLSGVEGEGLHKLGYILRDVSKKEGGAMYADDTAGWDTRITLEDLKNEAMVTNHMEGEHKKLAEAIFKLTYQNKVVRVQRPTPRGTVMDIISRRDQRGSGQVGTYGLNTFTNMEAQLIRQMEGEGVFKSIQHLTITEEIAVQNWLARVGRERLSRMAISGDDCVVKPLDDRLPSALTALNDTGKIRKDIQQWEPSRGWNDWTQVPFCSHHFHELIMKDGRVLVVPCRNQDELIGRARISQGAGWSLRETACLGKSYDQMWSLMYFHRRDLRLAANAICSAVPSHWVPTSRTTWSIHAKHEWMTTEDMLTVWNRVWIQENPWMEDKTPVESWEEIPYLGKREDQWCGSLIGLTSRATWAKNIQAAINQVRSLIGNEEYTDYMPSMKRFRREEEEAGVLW
# Leucine aminopeptidase = target: T4, Leucine aminopeptidase (Plasmodium falciparum 3D7, UniProt Q8IL11); experiment: P. falciparum M17LAP inhibitors, primary screen, biochemical, fluorogenic H-Leu-NHMec substrate, 1536-well (AID 1619); type: functional
# T4 sequence (Q8IL11 whole entry): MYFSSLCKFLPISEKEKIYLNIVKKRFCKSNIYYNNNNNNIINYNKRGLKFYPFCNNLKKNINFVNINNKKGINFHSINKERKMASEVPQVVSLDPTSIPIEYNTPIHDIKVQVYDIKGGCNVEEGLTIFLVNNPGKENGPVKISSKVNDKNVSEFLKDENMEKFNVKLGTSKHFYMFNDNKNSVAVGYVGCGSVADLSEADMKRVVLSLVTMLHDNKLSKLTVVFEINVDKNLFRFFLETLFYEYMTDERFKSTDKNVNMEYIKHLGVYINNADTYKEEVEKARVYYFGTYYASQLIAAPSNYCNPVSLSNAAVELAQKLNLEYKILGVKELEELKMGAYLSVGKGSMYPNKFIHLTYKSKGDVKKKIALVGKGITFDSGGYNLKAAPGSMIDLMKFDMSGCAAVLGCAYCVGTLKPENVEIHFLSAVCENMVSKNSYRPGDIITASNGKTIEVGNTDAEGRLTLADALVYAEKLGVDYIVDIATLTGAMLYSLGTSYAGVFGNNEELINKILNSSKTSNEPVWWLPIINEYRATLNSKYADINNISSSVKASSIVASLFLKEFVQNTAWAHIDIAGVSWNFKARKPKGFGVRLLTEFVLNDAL
# [8] = NIH-3T3 fibroblast cytotoxicity, dose response, cytotoxicity control, cell-based, fluorescence, Alamar Blue, secondary assay (AID 2327); type: functional;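 further: NIH-3T3 mouse fibroblasts cultured with fluconazole at 8 µg/mL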
# [9] = fluconazole-exposed Candida albicans growth modulators – fluorescence, retest, confirmation (AID 2467); type: functional, cell-based
# [10] = target: T5, Serine/threonine-protein phosphatase (Candida dubliniensis (strain CD36 / CBS 7987 / NCPF 3949 / NRRLY-17841) (Yeast), UniProt B9W6M3); experiment: blockers of CaCl2-induced CDRE-lacZ signaling – S. cerevisiae, luminescence, secondary, dose response (AID 2388); type: functional, cell-based;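 further: yeast reporter cells carrying a calcineurin-responsive lacZ construct stimulated with calcium chloride; luminescent beta-galactosidase reporter signal in whole cells rather than isolated phosphatase activity; potency for inhibition where a drop in reporter signal means calcineurin blockade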
# T5 sequence (B9W6M3 whole entry): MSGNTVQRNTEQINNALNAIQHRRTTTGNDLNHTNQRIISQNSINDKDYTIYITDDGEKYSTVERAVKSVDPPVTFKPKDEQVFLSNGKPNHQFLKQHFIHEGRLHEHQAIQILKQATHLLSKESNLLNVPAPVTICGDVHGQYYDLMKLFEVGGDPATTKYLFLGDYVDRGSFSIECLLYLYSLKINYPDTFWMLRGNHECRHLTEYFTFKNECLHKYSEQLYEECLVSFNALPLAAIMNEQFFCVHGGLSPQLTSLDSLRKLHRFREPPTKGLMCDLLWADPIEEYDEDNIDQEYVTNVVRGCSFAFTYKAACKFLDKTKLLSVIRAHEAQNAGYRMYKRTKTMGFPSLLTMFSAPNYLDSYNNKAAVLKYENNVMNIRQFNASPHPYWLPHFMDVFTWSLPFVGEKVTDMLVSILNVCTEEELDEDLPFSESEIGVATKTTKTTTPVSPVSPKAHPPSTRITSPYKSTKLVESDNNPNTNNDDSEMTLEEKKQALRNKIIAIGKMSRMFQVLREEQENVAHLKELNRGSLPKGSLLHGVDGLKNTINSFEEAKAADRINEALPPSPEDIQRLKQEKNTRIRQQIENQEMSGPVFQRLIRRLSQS
# [11] = target: T6, High affinity choline transporter 1 (Homo sapiens, UniProt Q9GZV3); experiment: human choline transporter blockers, potency – cell-based, 5-point CRC, membrane potential dye, dose response (AID 504840); type: functional
# T6 sequence (Q9GZV3 whole entry): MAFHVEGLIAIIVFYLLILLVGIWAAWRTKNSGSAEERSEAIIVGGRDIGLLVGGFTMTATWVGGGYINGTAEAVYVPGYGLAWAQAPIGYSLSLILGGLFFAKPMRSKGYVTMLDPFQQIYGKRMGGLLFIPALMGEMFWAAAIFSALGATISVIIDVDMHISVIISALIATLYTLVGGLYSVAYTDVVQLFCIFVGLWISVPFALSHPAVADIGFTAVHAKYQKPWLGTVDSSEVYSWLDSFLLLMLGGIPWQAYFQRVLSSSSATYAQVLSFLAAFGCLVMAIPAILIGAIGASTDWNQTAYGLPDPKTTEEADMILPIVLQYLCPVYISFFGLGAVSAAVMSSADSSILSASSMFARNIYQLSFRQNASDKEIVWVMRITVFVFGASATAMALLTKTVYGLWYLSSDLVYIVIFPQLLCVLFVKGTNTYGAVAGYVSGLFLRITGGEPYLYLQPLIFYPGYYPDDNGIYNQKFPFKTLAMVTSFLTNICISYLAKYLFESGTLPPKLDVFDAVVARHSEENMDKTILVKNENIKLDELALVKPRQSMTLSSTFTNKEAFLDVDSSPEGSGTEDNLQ
# [12] = target: ATP-dependent molecular chaperone HSP82 (Candida albicans (strain WO-1) (Yeast), UniProt C4YTQ8); experiment: steroid-induced GRE reporter decrease in yeast – S. cerevisiae, luminescence, Hsp90 inhibitor project, dose response (AID 2400); type: functional, cell-based;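 further: beta-galactosidase luminescence from glucocorticoid response element reporter as proxy for Hsp90 function; inhibitor potency where signal loss means Hsp90 inhibition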
# Chain of ATP-dependent molecular chaperone HSP82 (C4YTQ8 whole entry): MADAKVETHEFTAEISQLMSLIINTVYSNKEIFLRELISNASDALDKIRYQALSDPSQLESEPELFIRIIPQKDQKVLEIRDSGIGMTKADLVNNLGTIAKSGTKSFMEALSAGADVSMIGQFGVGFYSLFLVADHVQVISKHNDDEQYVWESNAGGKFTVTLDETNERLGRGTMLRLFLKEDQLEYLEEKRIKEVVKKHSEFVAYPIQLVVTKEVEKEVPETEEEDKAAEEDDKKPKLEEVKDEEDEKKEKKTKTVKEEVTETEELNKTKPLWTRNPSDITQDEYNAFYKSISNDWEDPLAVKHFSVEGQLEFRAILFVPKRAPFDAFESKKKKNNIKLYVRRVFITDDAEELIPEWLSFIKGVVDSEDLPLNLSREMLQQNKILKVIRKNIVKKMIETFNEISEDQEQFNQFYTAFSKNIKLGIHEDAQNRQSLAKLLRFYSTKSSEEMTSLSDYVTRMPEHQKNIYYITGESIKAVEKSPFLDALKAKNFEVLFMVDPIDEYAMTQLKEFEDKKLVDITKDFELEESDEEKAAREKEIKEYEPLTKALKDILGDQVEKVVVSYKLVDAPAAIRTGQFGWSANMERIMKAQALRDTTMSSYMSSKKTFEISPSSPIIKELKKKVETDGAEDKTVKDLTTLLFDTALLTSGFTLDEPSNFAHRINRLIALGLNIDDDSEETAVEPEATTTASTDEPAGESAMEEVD
# [13] = microbe, parasite or virus in culture; type: functional; settings: Mycobacterium tuberculosis
# [14] = target: T7, Heat shock factor protein 1 (Mus musculus, UniProt P38532); experiment: enhancement of HSF1-driven luciferase signal – cell-based, NIH3T3, luminescence, dose retest, confirmation (AID 435004); type: functional;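 further: stress induced by proteasome inhibitor MG132 added 30 min after compound; luciferase reporter driven by HSF1 response element in NIH3T3 cells; actives raise luminescence as potentiators of the MG132 stress response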
# T7 sequence (P38532 whole entry): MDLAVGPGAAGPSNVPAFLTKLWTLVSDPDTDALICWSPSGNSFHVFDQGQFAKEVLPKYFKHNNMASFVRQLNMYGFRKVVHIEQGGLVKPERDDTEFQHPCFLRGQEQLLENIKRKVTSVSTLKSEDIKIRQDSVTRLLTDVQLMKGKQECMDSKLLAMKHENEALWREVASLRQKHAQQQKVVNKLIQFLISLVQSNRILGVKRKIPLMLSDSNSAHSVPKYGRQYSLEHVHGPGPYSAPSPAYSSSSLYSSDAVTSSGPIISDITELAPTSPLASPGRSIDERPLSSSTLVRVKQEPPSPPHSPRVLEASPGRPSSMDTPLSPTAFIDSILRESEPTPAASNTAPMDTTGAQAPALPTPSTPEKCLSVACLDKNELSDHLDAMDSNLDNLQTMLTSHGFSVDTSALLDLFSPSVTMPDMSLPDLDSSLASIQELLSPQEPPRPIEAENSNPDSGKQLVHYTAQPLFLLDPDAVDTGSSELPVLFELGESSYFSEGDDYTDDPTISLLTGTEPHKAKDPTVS
smiles,measurement,setting,value
O=C(Nc1ccc(Cl)c([N+](=O)[O-])c1)C(Sc1ccccc1)c1ccccc1 (stereo not drawn),EC50,[1],1.45 µM (active)
same,EC50,[2],> 60 µM (inconclusive)
same,AC50,CAAX prenyl protease 2,7.77 µM (active)
COc1ccccc1-c1nnc(NC(=O)c2ccc3ncsc3c2)o1,CC50,[3],> 40 µM (active)
same,CC50,[4],> 20 µM (active)
same,CC50,[5],10.3 µM (active)
same,IC50,cells,7.75 µM (active)
CCOC(=O)Cc1csc(NC(=O)c2c(O)c3ccccc3n(CCC(C)C)c2=O)n1,CC50,[3],15.2 µM (active)
same,CC50,[4],> 20 µM (active)
same,CC50,[5],8.56 µM (active)
same,IC50,cells,2.08 µM (active)
O=[N+]([O-])c1cccc(-c2csc(N/N=C/c3cccc(O)c3)n2)c1,AC50,[6],2.8 µM (active)
same,IC50,[7],10.8 µM (active)
COc1ccc(OCCC(=O)OCC(=O)NCc2ccco2)cc1,IC50,Estrogen receptor,33.3 µM (not active)
same,IC50,[7],9.12 µM (active)
C/C(=N\NC(=O)COc1cccc(C)c1)c1ccc2ccccc2c1O,CC50,[3],8.95 µM (active)
same,CC50,[4],19.1 µM (active)
same,CC50,[5],16.5 µM (active)
O=C(COc1cccc2ccccc12)Nc1cc(Cl)ccc1C(=O)O,IC50,Genome polyprotein,40.5 µM (active)
O=C(NNC(=O)c1cc2cc3ccccc3nc2s1)c1ccc(F)cc1,IC50,[7],4.28 µM (active)
CCOC(=O)c1c(NC(=O)C2C3C=CC(C3)C2(C)C(=O)O)sc2c1CCCC2 (stereo not drawn),IC50,Leucine aminopeptidase,8.1 µM (active)
same,IC50,[7],16.1 µM (active)
O=C(NCc1ccccc1)c1sc(=S)n2c1[nH]c(=O)c1ccccc12,EC50,[8],> 150 µM (inactive)
same,EC50,[9],0.706 µM (active)
same,EC50,[10],> 180 µM (inactive)
same,IC50,[11],22 µM (active)
same,IC50,Genome polyprotein,77 µM (active)
same,EC50,[12],6.61 µM (active)
CC1(O)CC(c2ccc(Cl)cc2)=NN1C(=O)c1ccc([N+](=O)[O-])cc1 (stereo not drawn),EC50,[8],> 150 µM (inconclusive)
same,EC50,[9],0.404 µM (active)
same,CC50,[13],24.7 µM (active)
same,EC50,[10],> 180 µM (inactive)
same,CC50,[3],15.5 µM (active)
same,AC50,[6],3.86 µM (active)
same,CC50,[4],> 20 µM (active)
same,CC50,[5],19.5 µM (active)
same,IC50,cells,14.2 µM (active)
same,EC50,[12],12.5 µM (active)
CCOC(=O)[C@@H]1[C@H]2COc3ccc(Br)cc3[C@@H]2N2C(=O)N(c3cccc(C)c3)C(=O)[C@]12C,AC50,CAAX prenyl protease 2,4.52 µM (active)
O=C(O)Cc1ccc(NC(=O)c2ccc3c(c2)C(=O)N(Cc2ccco2)C3=O)cc1,IC50,[7],3.79 µM (active)
CCOC(=O)Nc1ccc2c(c1)N(C(=O)CCN1CCOCC1)c1ccccc1[S+]2[O-] (stereo not drawn),CC50,[3],26.7 µM (active)
same,CC50,[5],> 20 µM (active)
same,EC50,[14],> 260 µM (inactive)
